How the values were obtained:
D(3) dopamine receptor = D(3) dopamine receptor (Homo sapiens, UniProt P35462)
[1] = molecular target: 5-hydroxytryptamine receptor 1A (Homo sapiens, UniProt P08908)
[2] = molecular target: 5-hydroxytryptamine receptor 6 (Homo sapiens, UniProt P50406)
[3] = molecular target: 5-hydroxytryptamine receptor 2A (Rattus norvegicus, UniProt P14842)
Histamine H1 receptor = Histamine H1 receptor (Homo sapiens, UniProt P35367)
[4] = molecular target: 5-hydroxytryptamine receptor 1B (Homo sapiens, UniProt P28222)
Sequence of 5-hydroxytryptamine receptor 1B (P28222 whole entry): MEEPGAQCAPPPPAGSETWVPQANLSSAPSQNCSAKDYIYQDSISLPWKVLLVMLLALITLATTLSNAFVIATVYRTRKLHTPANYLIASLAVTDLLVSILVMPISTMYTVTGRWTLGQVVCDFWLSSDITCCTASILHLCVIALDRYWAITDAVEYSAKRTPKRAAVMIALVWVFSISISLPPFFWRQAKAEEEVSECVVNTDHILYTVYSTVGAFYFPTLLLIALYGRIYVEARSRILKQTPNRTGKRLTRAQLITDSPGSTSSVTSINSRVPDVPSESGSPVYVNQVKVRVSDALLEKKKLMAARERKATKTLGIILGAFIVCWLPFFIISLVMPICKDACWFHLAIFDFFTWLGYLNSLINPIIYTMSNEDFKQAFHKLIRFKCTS

[5] = molecular target: 5-hydroxytryptamine receptor 1D (Homo sapiens, UniProt P28221)
[6] = molecular target: 5-hydroxytryptamine receptor 2B (Homo sapiens, UniProt P41595)
[7] = molecular target: 5-hydroxytryptamine receptor 7 (Homo sapiens, UniProt P34969)
[8] = molecular target: 5-hydroxytryptamine receptor 1E (Homo sapiens, UniProt P28566)
[9] = molecular target: Neuronal acetylcholine receptor subunit alpha-4 (Homo sapiens, UniProt P43681)
[10] = molecular target: Neuronal acetylcholine receptor subunit alpha-4 (Rattus norvegicus, UniProt P09483)
Sequence of Neuronal acetylcholine receptor subunit alpha-4 (Rattus norvegicus, UniProt P09483) (P09483 whole entry): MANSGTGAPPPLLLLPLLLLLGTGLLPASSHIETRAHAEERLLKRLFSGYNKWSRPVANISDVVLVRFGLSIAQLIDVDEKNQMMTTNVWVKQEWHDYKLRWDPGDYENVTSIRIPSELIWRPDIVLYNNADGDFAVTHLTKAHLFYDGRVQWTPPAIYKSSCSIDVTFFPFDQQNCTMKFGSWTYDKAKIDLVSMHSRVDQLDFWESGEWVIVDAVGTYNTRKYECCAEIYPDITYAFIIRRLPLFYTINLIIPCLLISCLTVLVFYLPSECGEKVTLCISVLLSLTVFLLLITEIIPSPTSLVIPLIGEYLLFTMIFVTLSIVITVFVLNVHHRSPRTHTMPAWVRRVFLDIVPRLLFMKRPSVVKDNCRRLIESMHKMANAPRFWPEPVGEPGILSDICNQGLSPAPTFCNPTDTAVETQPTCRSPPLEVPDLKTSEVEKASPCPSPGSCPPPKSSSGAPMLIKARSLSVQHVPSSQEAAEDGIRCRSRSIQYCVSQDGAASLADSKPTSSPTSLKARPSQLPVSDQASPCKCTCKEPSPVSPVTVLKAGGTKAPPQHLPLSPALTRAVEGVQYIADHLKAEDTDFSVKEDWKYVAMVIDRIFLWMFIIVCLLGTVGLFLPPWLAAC

[11] = molecular target: 5-hydroxytryptamine receptor 3A (Homo sapiens, UniProt P46098)
Sequence of 5-hydroxytryptamine receptor 3A (P46098 whole entry): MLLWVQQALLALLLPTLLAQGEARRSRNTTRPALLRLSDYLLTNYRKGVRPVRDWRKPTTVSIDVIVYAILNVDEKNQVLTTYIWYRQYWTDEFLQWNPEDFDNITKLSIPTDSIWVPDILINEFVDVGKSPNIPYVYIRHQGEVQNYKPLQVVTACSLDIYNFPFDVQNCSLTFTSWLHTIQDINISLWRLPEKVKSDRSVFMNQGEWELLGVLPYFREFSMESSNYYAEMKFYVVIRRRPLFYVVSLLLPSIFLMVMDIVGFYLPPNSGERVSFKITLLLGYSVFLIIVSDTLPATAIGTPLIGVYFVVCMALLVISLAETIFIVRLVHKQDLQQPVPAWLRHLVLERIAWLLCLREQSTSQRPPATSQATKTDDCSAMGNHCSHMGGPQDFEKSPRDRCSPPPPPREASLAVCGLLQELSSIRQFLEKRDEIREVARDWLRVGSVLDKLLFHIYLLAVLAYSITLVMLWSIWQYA

[12] = molecular target: Beta-1 adrenergic receptor (Rattus norvegicus, UniProt P18090)
[13] = molecular target: Muscarinic acetylcholine receptor M3 (Homo sapiens, UniProt P20309)
[14] = molecular target: Metabotropic glutamate receptor 5 (Homo sapiens, UniProt P41594)
Sequence of Metabotropic glutamate receptor 5 (P41594 whole entry): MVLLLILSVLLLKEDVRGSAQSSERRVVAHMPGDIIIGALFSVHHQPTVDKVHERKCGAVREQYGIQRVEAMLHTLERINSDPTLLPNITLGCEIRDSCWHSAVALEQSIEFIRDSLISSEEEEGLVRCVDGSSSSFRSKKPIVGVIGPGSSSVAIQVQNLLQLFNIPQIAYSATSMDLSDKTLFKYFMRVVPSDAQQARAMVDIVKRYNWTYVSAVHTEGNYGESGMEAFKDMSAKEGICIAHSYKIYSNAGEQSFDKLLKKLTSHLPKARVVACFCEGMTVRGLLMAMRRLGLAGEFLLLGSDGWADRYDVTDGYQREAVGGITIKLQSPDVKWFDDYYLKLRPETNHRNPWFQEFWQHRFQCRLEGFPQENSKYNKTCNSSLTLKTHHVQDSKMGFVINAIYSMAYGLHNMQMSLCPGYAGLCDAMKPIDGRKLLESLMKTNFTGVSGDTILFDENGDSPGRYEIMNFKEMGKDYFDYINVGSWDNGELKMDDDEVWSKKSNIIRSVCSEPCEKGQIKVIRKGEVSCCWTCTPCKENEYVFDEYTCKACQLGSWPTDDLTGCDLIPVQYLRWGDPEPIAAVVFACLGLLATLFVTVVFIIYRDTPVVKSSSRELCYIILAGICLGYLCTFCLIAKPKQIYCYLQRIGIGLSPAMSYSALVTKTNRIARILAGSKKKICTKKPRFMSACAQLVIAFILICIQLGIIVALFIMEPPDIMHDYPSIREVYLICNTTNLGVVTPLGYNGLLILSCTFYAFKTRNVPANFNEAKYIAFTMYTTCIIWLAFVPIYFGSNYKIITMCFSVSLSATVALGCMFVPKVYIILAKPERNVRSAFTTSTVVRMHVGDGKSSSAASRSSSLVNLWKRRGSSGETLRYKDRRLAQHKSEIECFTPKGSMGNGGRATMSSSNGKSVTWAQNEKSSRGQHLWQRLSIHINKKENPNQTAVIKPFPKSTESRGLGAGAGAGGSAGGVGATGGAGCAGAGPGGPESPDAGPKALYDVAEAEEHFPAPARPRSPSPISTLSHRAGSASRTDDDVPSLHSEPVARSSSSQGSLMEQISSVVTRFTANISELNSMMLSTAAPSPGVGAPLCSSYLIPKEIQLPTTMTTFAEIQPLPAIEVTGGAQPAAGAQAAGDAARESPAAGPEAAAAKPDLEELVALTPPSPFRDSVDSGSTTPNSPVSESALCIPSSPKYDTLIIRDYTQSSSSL

D(2) dopamine receptor = D(2) dopamine receptor (Homo sapiens, UniProt P14416)
[15] = molecular target: Alpha-1A adrenergic receptor (Homo sapiens, UniProt P35348)
D(1A) dopamine receptor = D(1A) dopamine receptor (Homo sapiens, UniProt P21728)
[16] = molecular target: 5-hydroxytryptamine receptor 5A (Homo sapiens, UniProt P47898)
Sequence of 5-hydroxytryptamine receptor 5A (P47898 whole entry): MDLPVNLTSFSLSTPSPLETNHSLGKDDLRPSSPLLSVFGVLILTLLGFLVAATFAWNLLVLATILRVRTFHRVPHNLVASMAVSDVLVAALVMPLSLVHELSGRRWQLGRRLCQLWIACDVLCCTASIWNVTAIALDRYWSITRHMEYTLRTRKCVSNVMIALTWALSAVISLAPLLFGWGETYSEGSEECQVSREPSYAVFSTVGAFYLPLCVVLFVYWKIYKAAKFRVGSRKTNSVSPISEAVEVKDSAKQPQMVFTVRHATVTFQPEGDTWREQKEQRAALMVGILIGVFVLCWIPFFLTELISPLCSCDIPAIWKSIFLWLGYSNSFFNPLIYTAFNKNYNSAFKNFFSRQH

[17] = molecular target: 5-hydroxytryptamine receptor 2C (Rattus norvegicus, UniProt P08909)
D(1B) dopamine receptor = D(1B) dopamine receptor (Homo sapiens, UniProt P21918)
Sequence of D(1B) dopamine receptor (P21918 whole entry): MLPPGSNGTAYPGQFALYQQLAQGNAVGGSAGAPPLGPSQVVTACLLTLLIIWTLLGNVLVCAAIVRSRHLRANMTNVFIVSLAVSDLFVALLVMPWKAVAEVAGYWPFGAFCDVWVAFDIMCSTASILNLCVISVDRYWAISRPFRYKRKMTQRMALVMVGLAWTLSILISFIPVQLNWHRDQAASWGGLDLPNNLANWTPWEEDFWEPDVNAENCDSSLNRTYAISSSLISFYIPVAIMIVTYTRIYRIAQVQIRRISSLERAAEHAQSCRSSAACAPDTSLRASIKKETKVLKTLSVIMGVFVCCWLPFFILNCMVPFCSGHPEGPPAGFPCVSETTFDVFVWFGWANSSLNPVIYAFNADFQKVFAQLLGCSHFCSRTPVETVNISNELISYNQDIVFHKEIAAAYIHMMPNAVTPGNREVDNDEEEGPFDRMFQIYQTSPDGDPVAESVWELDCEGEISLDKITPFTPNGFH

[18] = molecular target: Metabotropic glutamate receptor 4 (Homo sapiens, UniProt Q14833)
[19] = molecular target: Metabotropic glutamate receptor 1 (Homo sapiens, UniProt Q13255)
[20] = molecular target: Metabotropic glutamate receptor 2 (Homo sapiens, UniProt Q14416)
[21] = molecular target: Muscarinic acetylcholine receptor M2 (Homo sapiens, UniProt P08172)
[22] = molecular target: Muscarinic acetylcholine receptor M1 (Homo sapiens, UniProt P11229)
Sequence of Muscarinic acetylcholine receptor M1 (P11229 whole entry): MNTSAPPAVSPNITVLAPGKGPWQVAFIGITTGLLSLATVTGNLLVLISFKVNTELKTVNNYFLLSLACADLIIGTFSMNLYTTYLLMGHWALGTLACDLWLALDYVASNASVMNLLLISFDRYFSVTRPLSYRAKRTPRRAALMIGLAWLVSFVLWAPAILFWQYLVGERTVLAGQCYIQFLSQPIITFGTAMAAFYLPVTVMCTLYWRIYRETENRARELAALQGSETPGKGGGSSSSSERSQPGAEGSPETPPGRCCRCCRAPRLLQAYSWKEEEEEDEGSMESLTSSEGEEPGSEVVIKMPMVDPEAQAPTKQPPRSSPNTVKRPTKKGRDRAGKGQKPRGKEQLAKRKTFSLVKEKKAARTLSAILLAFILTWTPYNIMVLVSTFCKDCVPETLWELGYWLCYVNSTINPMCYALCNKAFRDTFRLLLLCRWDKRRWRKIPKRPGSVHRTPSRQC

[23] = molecular target: Gamma-aminobutyric acid receptor subunit alpha-1 (Rattus norvegicus, UniProt P62813)
Vasopressin V1b receptor = Vasopressin V1b receptor (Homo sapiens, UniProt P47901)
[24] = molecular target: Muscarinic acetylcholine receptor M4 (Homo sapiens, UniProt P08173)
[25] = molecular target: Neuronal acetylcholine receptor subunit alpha-2 (Homo sapiens, UniProt Q15822)
[26] = molecular target: Neuronal acetylcholine receptor subunit alpha-3 (Homo sapiens, UniProt P32297)
D(4) dopamine receptor = D(4) dopamine receptor (Rattus norvegicus, UniProt P30729)
[27] = molecular target: Sodium-dependent dopamine transporter (Bos taurus, UniProt P27922)
[28] = molecular target: Glutamate receptor ionotropic, NMDA 1 (Rattus norvegicus, UniProt P35439)
[29] = molecular target: Metabotropic glutamate receptor 6 (Homo sapiens, UniProt O15303)
[30] = molecular target: Metabotropic glutamate receptor 8 (Homo sapiens, UniProt O00222)
[31] = molecular target: Muscarinic acetylcholine receptor M5 (Homo sapiens, UniProt P08912)
Sequence of Muscarinic acetylcholine receptor M5 (P08912 whole entry): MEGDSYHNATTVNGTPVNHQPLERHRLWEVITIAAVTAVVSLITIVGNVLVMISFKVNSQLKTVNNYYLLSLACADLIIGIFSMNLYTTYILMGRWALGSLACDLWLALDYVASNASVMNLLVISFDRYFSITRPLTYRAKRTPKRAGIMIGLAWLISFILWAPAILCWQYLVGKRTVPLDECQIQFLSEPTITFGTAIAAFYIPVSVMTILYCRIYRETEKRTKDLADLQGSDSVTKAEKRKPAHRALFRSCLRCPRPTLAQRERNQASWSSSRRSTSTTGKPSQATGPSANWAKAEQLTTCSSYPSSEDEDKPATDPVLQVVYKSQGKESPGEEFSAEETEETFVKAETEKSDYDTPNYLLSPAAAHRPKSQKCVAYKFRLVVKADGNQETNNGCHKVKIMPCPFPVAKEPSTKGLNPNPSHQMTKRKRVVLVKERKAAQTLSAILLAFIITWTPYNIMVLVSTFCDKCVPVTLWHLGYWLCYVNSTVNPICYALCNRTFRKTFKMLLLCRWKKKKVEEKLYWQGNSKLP

[32] = molecular target: Beta-2 adrenergic receptor (Rattus norvegicus, UniProt P10608)
Vasopressin V2 receptor = Vasopressin V2 receptor (Homo sapiens, UniProt P30518)

Measured: Ki

Sequence of 5-hydroxytryptamine receptor 2A (P14842 whole entry): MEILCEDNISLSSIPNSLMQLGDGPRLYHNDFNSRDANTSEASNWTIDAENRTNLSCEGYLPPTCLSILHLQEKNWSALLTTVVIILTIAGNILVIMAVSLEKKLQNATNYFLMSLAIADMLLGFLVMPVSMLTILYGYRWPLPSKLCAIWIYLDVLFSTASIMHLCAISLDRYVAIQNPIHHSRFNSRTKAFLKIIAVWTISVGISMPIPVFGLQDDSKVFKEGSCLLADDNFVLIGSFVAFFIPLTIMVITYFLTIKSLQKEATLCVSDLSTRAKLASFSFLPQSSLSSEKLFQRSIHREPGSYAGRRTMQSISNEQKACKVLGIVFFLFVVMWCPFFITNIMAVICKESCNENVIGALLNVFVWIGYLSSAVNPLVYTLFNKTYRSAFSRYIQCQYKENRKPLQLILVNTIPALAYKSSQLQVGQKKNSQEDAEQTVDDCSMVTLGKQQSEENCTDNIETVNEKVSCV

COC(=O)[C@@H]1C[C@H](OC(C)=O)C(=O)[C@H]2[C@@]1(C)CC[C@H]1C(=O)O[C@H](c3ccoc3)C[C@]21C [2S,4aR,6a(R,7R,9S,10aS,10bR)-9-(acetyloxy)-2-(furan-3-yl)dodecahydro-6a,10b-dimethyl-4,10-dioxo-2H-naphtho[2,1-c]pyran-7-carboxylic acid methyl ester]
> 10 µM: all assays above

— BindingDB's records for doi:10.1073/pnas.182234399 (Case Western Reserve University, 2002)
